Data reported in patent publication EP0423221B1, “IMMUNOSUPPRESSIVE AGENTS” (THE UNIVERSITY OF SHEFFIELD, priority 1988, dated 1990).

Key:
[1] = tested on: human mixed lymphocyte reaction; assay: human mixed lymphocyte reaction (inhibition of 3H-thymidine incorporation); assay type: cell-based; conditions: for inhibition at 25 µM: Concentration of Solution 25 µM; for inhibition at 10 µM: Concentration of Solution 10 µM; for EC50: concentration which brings about 50% inhibition of ^3H-thymidine incorporation, read-out: Immunosuppressive activity ED50; for immunosuppressive activity compared with azathioprine: statement in words
Description: Fifteen of these compounds were screened for immunosuppressive activity by means of the human mixed lymphocyte reaction, which is well known and need not be further described here, the results of which are shown in Table 1.

For `Cn1cnc([N+](=O)[O-])c1Sc1ccccc1C(=O)O` [Compound 13], the inhibition at 25 µM ([1]; Homo sapiens, Lymphocyte) was 34%.

`Cn1ccnc1Sc1c([N+](=O)[O-])ncn1C` [Compound 22] was tested, and the inhibition at 10 µM ([1]; Homo sapiens, Lymphocyte) was 82%, the EC50 ([1]; Homo sapiens, Lymphocyte) was 3.15 µM and the “immunosuppressive activity compared with azathioprine” value [1] was “substantially more immunosuppressive than azathioprine”. The “toxicity to lymphocytes compared with azathioprine” value (lymphocytes) was “considerably less toxic to lymphocytes”.

`Cn1cnc([N+](=O)[O-])c1Sc1nc2ccccc2s1` [Compound 9] was tested, and the inhibition at 25 µM ([1]; Homo sapiens, Lymphocyte) was 27%.

Work on `Cn1cnc([N+](=O)[O-])c1Sc1nc2cc(F)c(Cl)cc2[nH]1` [Compound 4] yielded an inhibition at 50 µM ([1]; Homo sapiens, Lymphocyte, Concentration of Solution 50 µM) of 59%.

In the case of `Cn1cnc([N+](=O)[O-])c1Sc1nc2ccccc2o1` [Compound 8], the inhibition at 25 µM ([1]; Homo sapiens, Lymphocyte) is reported as 87%.

Compound `Cn1cnc([N+](=O)[O-])c1Sc1nc2ccccc2[nH]1` [Compound 1] has an inhibition at 36 µM ([1]; Homo sapiens, Lymphocyte, Concentration of Solution 36 µM) of 98%.

`Cn1cnc([N+](=O)[O-])c1Sc1nccc(O)n1` [Compound 19] showed an inhibition at 25 µM ([1]; Homo sapiens, Lymphocyte) of 29%.

`CCn1c(C)nc([N+](=O)[O-])c1Sc1nc(C)cc(C)n1` [Compound 18] showed an inhibition at 25 µM ([1]; Homo sapiens, Lymphocyte) of 47%.

For `Cn1cnc([N+](=O)[O-])c1Sc1ncnc2nc[nH]c12` [I (azathioprine), azathioprine, reference compound], the inhibition at 25 µM ([1]; Homo sapiens, Lymphocyte) was 79%, the EC50 ([1]; Homo sapiens, Lymphocyte) was 7.9 µM and the “Toxicity LD25” value (lymphocytes; human) was 42.5. The “Therapeutic index ED50/LD25” value (lymphocytes; ratio of toxicity and immunosuppressive activity) was 5.38.

In the case of `Cc1ccc2[nH]c(Sc3c([N+](=O)[O-])ncn3C)nc2c1` [Compound 2], the inhibition at 25 µM ([1]; Homo sapiens, Lymphocyte) is reported as 86%.

In the case of `COc1ccc(OC)c2[nH]c(Sc3c([N+](=O)[O-])ncn3C)nc12` [Compound 6], the inhibition at 25 µM ([1]; Homo sapiens, Lymphocyte) is reported as 41%.

`Cn1cnc([N+](=O)[O-])c1Sc1ncc[nH]1` [Compound 21] was tested, and the inhibition at 10 µM ([1]; Homo sapiens, Lymphocyte) was 89%, the EC50 ([1]; Homo sapiens, Lymphocyte) was 2.8 µM and the “immunosuppressive activity compared with azathioprine” value [1] was “substantially more immunosuppressive than azathioprine”. The “toxicity to lymphocytes compared with azathioprine” value (lymphocytes) was “considerably less toxic to lymphocytes”.

Compound `CCOC(=O)CSc1c([N+](=O)[O-])ncn1C` [Compound 30] has an inhibition at 25 µM ([1]; Homo sapiens, Lymphocyte) of 65%.

For `Cn1cnc([N+](=O)[O-])c1Sc1ncccn1` [Compound 16], the inhibition at 25 µM ([1]; Homo sapiens, Lymphocyte) was 47%.

Work on `Cn1cnc([N+](=O)[O-])c1Sc1ccccn1` [Compound 15] yielded an inhibition at 25 µM ([1]; Homo sapiens, Lymphocyte) of 76%.

With `Cn1cnc([N+](=O)[O-])c1Sc1ncnc2[nH]c(O)nc12` [Compound 11] the EC50 ([1]; Homo sapiens, Lymphocyte) was 24 µM, the “immunosuppressive activity compared with azathioprine” value [1] was “less immunosuppressive than azathioprine” and the “toxicity to lymphocytes compared with azathioprine” value (lymphocytes) was “much less toxic to the lymphocytes”.

`COc1cc2nc(Sc3c([N+](=O)[O-])ncn3C)[nH]c2cc1OC` [Compound 5] gave an inhibition at 25 µM ([1]; Homo sapiens, Lymphocyte) of 94%.
